Data from patent US12318373B2, “Methods of treating gastrointestinal stromal tumors” (Deciphera Pharmaceuticals, LLC, priority 2019, dated 2025).

Experiments:
[1] = Example 9: food effect (high-fat meal) on exposure; format: in vivo; details: 150 mg dose with a high-fat meal
Experimental: The effect of a high-fat breakfast on ripretinib and Compound A exposure was evaluated. A high fat meal consisted of approximately 150, 250, and 500-600 calories from protein, carbohydrate, and fat, respectively. […] Therefore, ripretinib may be taken with or without food at approximately same time each day.

[2] = Example 7: coadministration with strong CYP3A inhibitor (itraconazole), exposure; format: in vivo; details: coadministration of ripretinib with itraconazole
[3] = Example 8: coadministration with proton-pump inhibitor (pantoprazole), exposure; format: in vivo; details: ripretinib coadministered with pantoprazole
Experimental: The effect of a proton-pump inhibitor on the exposure of ripretinib was evaluated.

[4] = test system: GIST with KIT exon 11 primary mutations; details: cited from earlier work

SMILES	AUC0-24h higher by [1]	Cmax higher by [1]	Increase in AUC0-inf [2]	Increase in Cmax [2]	Difference in plasma exposure [3]	2-year relapse-free survival ([4]; adjuvant setting)	Median event-free survival ([4]; metastatic setting)
CCn1c(=O)c(-c2cc(NC(=O)Nc3ccccc3)c(F)cc2Br)cc2cnc(N)cc21 [Compound A]	47%	66%	99%	no change	No clinically significant differences	–	–
Cc1ccc(NC(=O)c2ccc(CN3CCN(C)CC3)cc2)cc1Nc1nccc(-c2cccnc2)n1 [imatinib]	–	–	–	–	–	~90%	under 2 years
